Earlier results as cited in patent EP0860164A1, “Cosmetic and dermatological composition for sun protection containing triazine derivates and butylenglycol diesters” (Beiersdorf Aktiengesellschaft, priority 1997, dated 1998).

Conditions: maximum amount of the filter that known solvents (Bekannte Lösungsmittel) can dissolve

Löslichkeit in Lipiden: ≤ 15 Gew.-%
SMILES: CCCCC(CC)COC(=O)c1ccc(Nc2nc(Nc3ccc(C(=O)OCC(CC)CCCC)cc3)nc(Nc3ccc(C(=O)OCC(CC)CCCC)cc3)n2)cc1 (stereo not shown) [UVINUL® T 150, 4,4',4''-(1,3,5-Triazin-2,4,6-triyltriimino)-tris-benzoesäure-tris(2-ethylhexylester)]
